Columns and labels:
human brain capillaries = assay: Accumulation/uptake of [125I]-p97 in isolated human brain capillaries; type: binding
Procedure: FIG. 5. Accumulation of p97 in human brain capillaries. Accumulation of [^125I]-p97 was measured at 37° C. for 1 h in isolated human brain capillaries (100 μg/assay). The incubation medium contained [^125I]-p97 and a final concentration of 100 nM p97 in Ringer/Hepes solution. The accumulation of [^125I]-p97 was performed in the presence or absence of 5 μm cold-p97, holo-transferrin or lactoferrin. […] The suspension was filtered under vacuum through a […] pore size Millipore filter. The filter was rinsed with 8 ml of stop solution, and the radioactivity was counted. Nonspecific binding of the radioactivity to the capillaries was determined by the addition of the ice-cold stop solution to the capillaries before adding the incubation medium. This value was subtracted from accumulation values obtained following an 1 h incubation. The results were expressed as ng of [^125I]-p97 accumulated per μg of brain capillaries.
FIG. 16 illustrates the identification of a p97 receptor according to ligand specificity. FIG. 16a, Uptake of [^125I]-p97 into human brain capillaries. The uptake of [^125I]-p97 at 100 nM (control) into isolated human brain capillaries was measured for 1 h at 37° C. in the presence of a 50-fold molar excess of unlabelled p97, human holo-transferrin or human lactoferrin. (*[…] Student's t-test (n=5); FIG. 16b, Effect of RAP on [^125I]-p97 transcytosis across BBCEC monolayers. Apical-to-basal transport of [^125I]-p97 was measured in the presence (closed circles) or absence (open circles) of RAP (25 μg/ml) (n=5); FIG. 16c, Inhibition of bovine [^125I]-lactoferrin transport by p97. Transcytosis of bovine [^125I]-lactoferrin (50 nM) was measured in the presence (closed circles) or absence (open circles) of unlabelled p97 (5 μM) at 37° C. (n=3).
A. Isolation of human brain capillaries. Capillaries of the blood-brain barrier were isolated from human brain cortex by a procedure previously described by Dallaire, et al., J. Biol. Chem., 267:22323-22327 (1992) with slight modifications. Human brains were obtained post-mortem. The brain was cleared of meninges, superficial large blood vessels and choroid plexus. All the following procedures were performed at 4° C. The cerebral cortex was homogenized in 5 volumes of Ringer/Hepes solution with a Polytron (Brinkman Instruments, Rexdale, Ontario, Canada). The homogenate was mixed with an equal volume of Dextran T-70 (27 g in 100 ml of Ringer/Hepes). The suspension was centrifuged at 25,000 g for 10 min. The pellet was resuspended in 30 ml of Ringer/Hepes and passed through a 250 μm nylon mesh screen. […]
B. p97 accumulation in human brain capillaries. […] Accumulation of [^125I]-p97 was measured at 37° C. for 1 h in isolated human brain capillaries (100 μg/assay). […]

[1] = system: bovine brain capillary endothelial cell monolayers; assay: Competition of [125I]-p97 binding on bovine brain capillary endothelial cell monolayers; details: [125I]-p97 25 nM, 2 h at 4° C., competitor 7.5 micromolar (FIG. 3)
Procedure: FIG. 3. Binding of p97 on bovine brain capillary endothelial cell monolayers. Binding p97 was performed with BBCECs that were pre-incubated 2 hrs in Ringer-Hepes to avoid any interference from the astrocytes. For the binding experiments, cells were incubated for 2 h at 4° C. in Ringer/Hepes in the presence of [^125I]-p97 (25 nM) and 7.5 micromolar concentrations of cold-p97, transferrin or lactoferrin, respectively. At the end of the incubation, the filters were gently washed at 4° C. three times with 4 ml of cold-PBS. Then the associated radioactivity of endothelial cells was determined by removing the membrane of the culture insert and counting it in a gamma counter.
B. Binding studies of p97. Binding of p97 was performed with BBCECs and Rat Brain Endothelial Cells that were pre-incubated 2 hrs in Ringer/Hepes to avoid any interference from the astrocytes.
For the binding experiments, cells were incubated for 2 h at 4° C. in Ringer/Hepes in the presence of [^125I]-p97 (25 nM) and increasing concentrations of cold-p97 or high (7.5 micromolar) concentrations of transferrin or lactoferrin. At the end of the incubation, the filters were gently washed at 4° C. three times with 4 ml of cold-PBS. Then the associated radioactivity of endothelial cells was determined by removing the membrane of the culture insert and counting it in a gamma counter.

RBE4 cells = assay: Competition of [125I]-p97 binding on rat brain endothelial cells (RBE4); details: competitor 10 micromolar, 2 hrs at 4° C. (FIG. 4)
Procedure: FIG. 4. Binding of p97 on rat brain endothelial cells. Binding p97 was performed with RBE4 that were pre-incubated 2 hrs in Ringer-Hepes. For the binding experiments, cells in 24-well microplates were incubated for 2 h at 4° C. in Ringer/Hepes in the presence of [^125I]-p97 (25 nM) and 10 micromolar concentrations of cold-p97, transferrin or lactoferin, respectively. At the end of the incubation, the cells were gently washed at 4° C. three times with 4 ml of cold-PBS. RBE4 cells were then lysed with Triton X-100 and the associated radioactivity of with cell lysates was determined.
RBE4 cells were grown in monolayers in 24 wells plastic tissue culture flasks at 37° C. under 5% CO2 in minimum essential medium Alpha and Ham's F10 (1:1) supplemented with 10% heat inactivated fetal bovine serum. For p97 binding experiments, RBE4 cells were pre-incubated at 37° C. for 2 hrs in Ringer/Hepes. ^125I-p97 in 200 μl of Ringer/Hepes was added to RBE4 cells for 2 hrs at 4° C. in the presence or absence of high concentration of cold-p97, human holo-transferrin or human lactoferrin. After the incubation, the cells were washed 4 times with PBS and the ^125I-p97 associated with the cells was measured.

## transferrin: transferrin (Tf), iron-binding serum protein used as comparator and competitor
Human brain capillaries; competitor 5 micromolar, 100 nM p97, 1 h at 37° C. (FIG. 5)
  Inhibition of [125I]-p97 binding/accumulation in human brain capillaries: no significant competition
Human brain capillaries; performed identically to FIG. 5 (FIG. 6)
  Competition with p97 for receptor binding in human brain capillaries, repeat experiment: not
[1]
  Inhibition of [125I]-p97 binding to BBCECs: did not block or reduce
RBE4 cells
  Inhibition of [125I]-p97 binding to RBE4 cells: does not

Source: US7977317B2, “Compositions and methods for modulating blood-brain barrier transport” (Raptor Pharmaceutical Inc., priority 2001, dated 2011)
